{"source": "patent US8192962B2", "about": "“Processes for detecting toxic substances” (Daikin Industries, Ltd., priority 2001, dated 2012)", "tested_on": "Unknown protein yeast genes", "assay": "DNA chip mRNA expression in yeast, unknown protein yeast genes (Table 1)", "format": "cell-based, Saccharomyces cerevisiae S288C", "procedure,_shortened": "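First, S288C yeast grown in YPD at 25° C. are dosed in log phase with one toxicant (growth-inhibiting, not lethal) for 2 h. Next, total RNA is extracted and poly(A) mRNA isolated and reverse-transcribed with Cy3/Cy5-dUTP. Finally, whole-genome chip fluorescence is read relative to unexposed cells.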", "data": [{"smiles": "COc1cc(CNC(=O)CCCCC=CC(C)C)ccc1O", "note": "[(12), 8-methyl-N-vanillyl-6-nonenamide]", "values": [{"measurement": "The level of expressed mRNA in the presence of chemical substance/The level of expressed mRNA in the absence of chemical substance", "setting": "yeast gene YKL086W, incubated two hours with chemical substance", "result": 0.6}, {"measurement": "The level of expressed mRNA in the presence of chemical substance/The level of expressed mRNA in the absence of chemical substance", "setting": "yeast gene YKL151C, incubated two hours with chemical substance", "result": 1.0}, {"measurement": "The level of expressed mRNA in the presence of chemical substance/The level of expressed mRNA in the absence of chemical substance", "setting": "yeast gene YKL153W, incubated two hours with chemical substance", "result": 1.1}, {"measurement": "The level of expressed mRNA in the presence of chemical substance/The level of expressed mRNA in the absence of chemical substance", "setting": "yeast gene YKL195W, incubated two hours with chemical substance", "result": 1.1}, {"measurement": "The level of expressed mRNA in the presence of chemical substance/The level of expressed mRNA in the absence of chemical substance", "setting": "yeast gene YKR091W, incubated two hours with chemical substance", "result": 0.9}, {"measurement": "The level of expressed mRNA in the presence of chemical substance/The level of expressed mRNA in the absence of chemical substance", "setting": "yeast gene YLR054C, incubated two hours with chemical substance", "result": 1.1}, {"measurement": "The level of expressed mRNA in the presence of chemical substance/The level of expressed mRNA in the absence of chemical substance", "setting": "yeast gene YLR149C, incubated two hours with chemical substance", "result": 2.0}, {"measurement": "The level of expressed mRNA in the presence of chemical substance/The level of expressed mRNA in the absence of chemical substance", "setting": "yeast gene YLR152C, incubated two hours with chemical substance", "result": 1.0}, {"measurement": "The level of expressed mRNA in the presence of chemical substance/The level of expressed mRNA in the absence of chemical substance", "setting": "yeast gene YLR194C, incubated two hours with chemical substance", "result": 1.6}, {"measurement": "The level of expressed mRNA in the presence of chemical substance/The level of expressed mRNA in the absence of chemical substance", "setting": "yeast gene YLR324W, incubated two hours with chemical substance", "result": 0.8}, {"measurement": "The level of expressed mRNA in the presence of chemical substance/The level of expressed mRNA in the absence of chemical substance", "setting": "yeast gene YLR350W, incubated two hours with chemical substance", "result": 1.8}, {"measurement": "The level of expressed mRNA in the presence of chemical substance/The level of expressed mRNA in the absence of chemical substance", "setting": "yeast gene YLR387C, incubated two hours with chemical substance", "result": 1.1}, {"measurement": "The level of expressed mRNA in the presence of chemical substance/The level of expressed mRNA in the absence of chemical substance", "setting": "yeast gene YLR460C", "result": 0.4}, {"measurement": "The level of expressed mRNA in the presence of chemical substance/The level of expressed mRNA in the absence of chemical substance", "setting": "yeast gene YML117W, incubated two hours with chemical substance", "result": 0.8}, {"measurement": "The level of expressed mRNA in the presence of chemical substance/The level of expressed mRNA in the absence of chemical substance", "setting": "yeast gene YMR009W, incubated two hours with chemical substance", "result": 0.6}, {"measurement": "The level of expressed mRNA in the presence of chemical substance/The level of expressed mRNA in the absence of chemical substance", "setting": "yeast gene YMR067C, incubated two hours with chemical substance", "result": 1.1}, {"measurement": "The level of expressed mRNA in the presence of chemical substance/The level of expressed mRNA in the absence of chemical substance", "setting": "yeast gene YMR090W", "result": 2.2}, {"measurement": "The level of expressed mRNA in the presence of chemical substance/The level of expressed mRNA in the absence of chemical substance", "setting": "yeast gene YMR095C, incubated two hours with chemical substance", "result": 0.8}, {"measurement": "The level of expressed mRNA in the presence of chemical substance/The level of expressed mRNA in the absence of chemical substance", "setting": "yeast gene YMR097C, incubated two hours with chemical substance", "result": 1.2}, {"measurement": "The level of expressed mRNA in the presence of chemical substance/The level of expressed mRNA in the absence of chemical substance", "setting": "yeast gene YMR102C, incubated two hours with chemical substance", "result": 2.4}, {"measurement": "The level of expressed mRNA in the presence of chemical substance/The level of expressed mRNA in the absence of chemical substance", "setting": "yeast gene YMR107W, incubated two hours with chemical substance", "result": 0.8}, {"measurement": "The level of expressed mRNA in the presence of chemical substance/The level of expressed mRNA in the absence of chemical substance", "setting": "yeast gene YMR180C, incubated two hours with chemical substance", "result": 1.2}, {"measurement": "The level of expressed mRNA in the presence of chemical substance/The level of expressed mRNA in the absence of chemical substance", "setting": "yeast gene YMR184W, incubated two hours with chemical substance", "result": 1.7}, {"measurement": "The level of expressed mRNA in the presence of chemical substance/The level of expressed mRNA in the absence of chemical substance", "setting": "yeast gene YMR191W, incubated two hours with chemical substance", "result": 1.8}, {"measurement": "The level of expressed mRNA in the presence of chemical substance/The level of expressed mRNA in the absence of chemical substance", "setting": "yeast gene YMR295C, incubated two hours with chemical substance", "result": 1.1}, {"measurement": "The level of expressed mRNA in the presence of chemical substance/The level of expressed mRNA in the absence of chemical substance", "setting": "yeast gene YMR316W, incubated two hours with chemical substance", "result": 1.9}, {"measurement": "The level of expressed mRNA in the presence of chemical substance/The level of expressed mRNA in the absence of chemical substance", "setting": "yeast gene YNL044W, incubated two hours with chemical substance", "result": 1.0}, {"measurement": "The level of expressed mRNA in the presence of chemical substance/The level of expressed mRNA in the absence of chemical substance", "setting": "yeast gene YNL074C, incubated two hours with chemical substance", "result": 0.9}, {"measurement": "The level of expressed mRNA in the presence of chemical substance/The level of expressed mRNA in the absence of chemical substance", "setting": "yeast gene YNL092W, incubated two hours with chemical substance", "result": 1.1}, {"measurement": "The level of expressed mRNA in the presence of chemical substance/The level of expressed mRNA in the absence of chemical substance", "setting": "yeast gene YNL115C, incubated two hours with chemical substance", "result": 0.8}, {"measurement": "The level of expressed mRNA in the presence of chemical substance/The level of expressed mRNA in the absence of chemical substance", "setting": "yeast gene YNL156C, incubated two hours with chemical substance", "result": 0.9}, {"measurement": "The level of expressed mRNA in the presence of chemical substance/The level of expressed mRNA in the absence of chemical substance", "setting": "yeast gene YNL234W, incubated two hours with chemical substance", "result": 1.1}, {"measurement": "The level of expressed mRNA in the presence of chemical substance/The level of expressed mRNA in the absence of chemical substance", "setting": "yeast gene YNL281W, incubated two hours with chemical substance", "result": 0.7}, {"measurement": "The level of expressed mRNA in the presence of chemical substance/The level of expressed mRNA in the absence of chemical substance", "setting": "yeast gene YNL305C, incubated two hours with chemical substance", "result": 1.1}, {"measurement": "The level of expressed mRNA in the presence of chemical substance/The level of expressed mRNA in the absence of chemical substance", "setting": "yeast gene YNR068C, incubated two hours with chemical substance", "result": 1.3}, {"measurement": "The level of expressed mRNA in the presence of chemical substance/The level of expressed mRNA in the absence of chemical substance", "setting": "yeast gene YOL032W, incubated two hours with chemical substance", "result": 1.0}, {"measurement": "The level of expressed mRNA in the presence of chemical substance/The level of expressed mRNA in the absence of chemical substance", "setting": "yeast gene YOL036W, incubated two hours with chemical substance", "result": 1.0}, {"measurement": "The level of expressed mRNA in the presence of chemical substance/The level of expressed mRNA in the absence of chemical substance", "setting": "yeast gene YOL047C, incubated two hours with chemical substance", "result": 0.8}, {"measurement": "The level of expressed mRNA in the presence of chemical substance/The level of expressed mRNA in the absence of chemical substance", "setting": "yeast gene YOL071W, incubated two hours with chemical substance", "result": 1.0}, {"measurement": "The level of expressed mRNA in the presence of chemical substance/The level of expressed mRNA in the absence of chemical substance", "setting": "yeast gene YOL082W, incubated two hours with chemical substance", "result": 1.0}, {"measurement": "The level of expressed mRNA in the presence of chemical substance/The level of expressed mRNA in the absence of chemical substance", "setting": "yeast gene YOL083W, incubated two hours with chemical substance", "result": 1.2}, {"measurement": "The level of expressed mRNA in the presence of chemical substance/The level of expressed mRNA in the absence of chemical substance", "setting": "yeast gene YOL117W, incubated two hours with chemical substance", "result": 0.9}, {"measurement": "The level of expressed mRNA in the presence of chemical substance/The level of expressed mRNA in the absence of chemical substance", "setting": "yeast gene YOL131W, incubated two hours with chemical substance", "result": 0.9}, {"measurement": "The level of expressed mRNA in the presence of chemical substance/The level of expressed mRNA in the absence of chemical substance", "setting": "yeast gene YOL150C", "result": 2.9}, {"measurement": "The level of expressed mRNA in the presence of chemical substance/The level of expressed mRNA in the absence of chemical substance", "setting": "yeast gene YOL162W, incubated two hours with chemical substance", "result": 1.4}, {"measurement": "The level of expressed mRNA in the presence of chemical substance/The level of expressed mRNA in the absence of chemical substance", "setting": "yeast gene YOR019W, incubated two hours with chemical substance", "result": 1.0}, {"measurement": "The level of expressed mRNA in the presence of chemical substance/The level of expressed mRNA in the absence of chemical substance", "setting": "yeast gene YOR129C", "result": 0.6}, {"measurement": "The level of expressed mRNA in the presence of chemical substance/The level of expressed mRNA in the absence of chemical substance", "setting": "yeast gene YOR197W, incubated two hours with chemical substance", "result": 1.0}, {"measurement": "The level of expressed mRNA in the presence of chemical substance/The level of expressed mRNA in the absence of chemical substance", "setting": "yeast gene YPL087W, incubated two hours with chemical substance", "result": 1.8}, {"measurement": "The level of expressed mRNA in the presence of chemical substance/The level of expressed mRNA in the absence of chemical substance", "setting": "yeast gene YPL196W, incubated two hours with chemical substance", "result": 0.9}, {"measurement": "The level of expressed mRNA in the presence of chemical substance/The level of expressed mRNA in the absence of chemical substance", "setting": "yeast gene YPL206C, incubated two hours with chemical substance", "result": 0.8}, {"measurement": "The level of expressed mRNA in the presence of chemical substance/The level of expressed mRNA in the absence of chemical substance", "setting": "yeast gene YPL222W, incubated two hours with chemical substance", "result": 1.3}, {"measurement": "The level of expressed mRNA in the presence of chemical substance/The level of expressed mRNA in the absence of chemical substance", "setting": "yeast gene YPR023C, incubated two hours with chemical substance", "result": 0.9}, {"measurement": "The level of expressed mRNA in the presence of chemical substance/The level of expressed mRNA in the absence of chemical substance", "setting": "yeast gene YPR151C, incubated two hours with chemical substance", "result": 0.9}]}]}
